Data from US10844077B2, “Thiazolyl-containing compounds for treating proliferative diseases” (Dana-Farber Cancer Institute, Inc., priority 2014, dated 2020).
Where two headings read alike, the source gives them in different places.

Experiments:
Assay type in all cases: binding
[1] = molecular target: broad panel of kinases (Homo sapiens, UniProt P53667); settings: LIMK1; 1 μM
[2] = molecular target: broad panel of kinases (Homo sapiens, UniProt P07949, V804L); settings: RET(V804L); 1 μM
[3] = molecular target: broad panel of kinases (Homo sapiens, UniProt P57058); settings: HUNK; 1 μM
[4] = molecular target: broad panel of kinases (Homo sapiens, UniProt Q6DT37); settings: DMPK2; 1 μM
[5] = molecular target: broad panel of kinases (Homo sapiens, UniProt P53350); settings: PLK1; 1 μM
[6] = molecular target: broad panel of kinases (Homo sapiens, UniProt Q9UEW8); settings: STK39; 1 μM
[7] = molecular target: broad panel of kinases (Homo sapiens, UniProt Q9UK32); settings: 1 μM
[8] = molecular target: broad panel of kinases (Homo sapiens, UniProt P48736); settings: PIK3CG; 1 μM
[9] = molecular target: broad panel of kinases (Homo sapiens, UniProt Q32MK0); settings: MLCK; 1 μM
[10] = molecular target: broad panel of kinases (Homo sapiens, UniProt Q8NG66); settings: NEK11; 1 μM
[11] = molecular target: broad panel of kinases (Homo sapiens, UniProt P00533); settings: EGFR; 1 μM
[12] = molecular target: broad panel of kinases (Homo sapiens, UniProt Q9BXA7); settings: TSSK1B; 1 μM
[13] = molecular target: broad panel of kinases (Homo sapiens, UniProt O75385); settings: ULK1; 1 μM
[14] = molecular target: broad panel of kinases (Homo sapiens, UniProt Q9NY57); settings: YANK2; 1 μM
[15] = molecular target: broad panel of kinases (Homo sapiens, UniProt P00533, DEL746-750); settings: EGFR(E746-A750del); 1 μM
[16] = molecular target: broad panel of kinases (Homo sapiens, UniProt Q15746); settings: MYLK; 1 μM
[17] = molecular target: broad panel of kinases (Homo sapiens, UniProt P51957); settings: NEK4; 1 μM
[18] = molecular target: broad panel of kinases (Homo sapiens, UniProt Q9BQI3); settings: EIF2AK1; 1 μM
[19] = molecular target: broad panel of kinases (Homo sapiens, UniProt Q8N752); settings: CSNK1A1L; 1 μM
[20] = molecular target: broad panel of kinases (Homo sapiens, UniProt Q13523); settings: PRP4; 1 μM
[21] = molecular target: broad panel of kinases (Homo sapiens, UniProt P23443); settings: S6K1; 1 μM
[22] = molecular target: broad panel of kinases (Homo sapiens, UniProt O43283); settings: LZK; 1 μM
[23] = molecular target: broad panel of kinases (Homo sapiens, UniProt P45983); settings: JNK1; 1 μM
[24] = molecular target: broad panel of kinases (Homo sapiens, UniProt P09769); settings: FGR; 1 μM
[25] = molecular target: broad panel of kinases (Homo sapiens, UniProt P00519, F317L); settings: 1 μM
[26] = molecular target: broad panel of kinases (Homo sapiens, UniProt Q16512); settings: PKN1; 1 μM
[27] = molecular target: broad panel of kinases (Homo sapiens, UniProt Q9Y243); settings: AKT3; 1 μM
[28] = molecular target: broad panel of kinases (Homo sapiens, UniProt P57078); settings: RIPK4; 1 μM
[29] = molecular target: broad panel of kinases (Homo sapiens, UniProt P43405); settings: SYK; 1 μM
[30] = molecular target: broad panel of kinases (Homo sapiens, UniProt P49759); settings: CLK1; 1 μM
[31] = molecular target: broad panel of kinases (Homo sapiens, UniProt Q9UKI8); settings: TLK1; 1 μM
[32] = molecular target: broad panel of kinases (Homo sapiens, UniProt P42336, H1047L); settings: PIK3CA(H1047L); 1 μM
[33] = molecular target: broad panel of kinases (Homo sapiens, UniProt Q96Q40)
[34] = molecular target: broad panel of kinases (Homo sapiens, UniProt O00329); settings: PIK3CD; 1 μM
[35] = molecular target: broad panel of kinases (Homo sapiens, UniProt Q9UPE1); settings: SRPK3; 1 μM
[36] = molecular target: broad panel of kinases (Homo sapiens, UniProt O94804); settings: LOK; 1 μM
[37] = molecular target: broad panel of kinases (Homo sapiens, UniProt P54646); settings: AMPK-alpha2; 1 μM

broad panel of kinases (Homo sapiens, UniProt Q9Y243), sequence (Q9Y243 2-479 limits assumed): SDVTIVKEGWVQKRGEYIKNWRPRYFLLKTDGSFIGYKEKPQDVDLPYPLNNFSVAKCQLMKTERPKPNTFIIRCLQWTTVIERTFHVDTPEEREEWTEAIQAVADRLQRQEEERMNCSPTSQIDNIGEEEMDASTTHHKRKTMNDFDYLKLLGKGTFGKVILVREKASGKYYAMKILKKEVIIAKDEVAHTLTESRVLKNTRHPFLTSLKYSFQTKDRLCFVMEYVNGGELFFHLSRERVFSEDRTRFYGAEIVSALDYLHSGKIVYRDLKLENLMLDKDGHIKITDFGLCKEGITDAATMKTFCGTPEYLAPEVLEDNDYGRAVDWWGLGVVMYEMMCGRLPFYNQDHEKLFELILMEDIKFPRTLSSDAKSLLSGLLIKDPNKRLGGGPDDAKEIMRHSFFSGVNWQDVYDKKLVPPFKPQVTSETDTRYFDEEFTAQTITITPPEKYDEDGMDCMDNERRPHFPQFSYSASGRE
broad panel of kinases (Homo sapiens, UniProt P09769), sequence (P09769 2-529 limits assumed): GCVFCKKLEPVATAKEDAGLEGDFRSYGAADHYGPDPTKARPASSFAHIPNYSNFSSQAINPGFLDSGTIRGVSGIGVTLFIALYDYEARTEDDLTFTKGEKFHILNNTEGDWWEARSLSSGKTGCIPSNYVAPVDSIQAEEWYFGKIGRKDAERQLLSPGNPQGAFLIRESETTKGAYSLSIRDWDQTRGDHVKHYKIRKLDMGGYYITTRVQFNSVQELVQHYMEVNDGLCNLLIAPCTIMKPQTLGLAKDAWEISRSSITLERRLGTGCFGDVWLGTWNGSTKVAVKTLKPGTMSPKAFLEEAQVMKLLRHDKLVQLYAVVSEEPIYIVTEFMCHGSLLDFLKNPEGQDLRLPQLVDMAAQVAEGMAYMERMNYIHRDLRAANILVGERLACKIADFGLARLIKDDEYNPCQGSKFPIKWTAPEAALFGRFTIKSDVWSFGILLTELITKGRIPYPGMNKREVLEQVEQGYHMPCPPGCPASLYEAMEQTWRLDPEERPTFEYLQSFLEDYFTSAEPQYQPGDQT
broad panel of kinases (Homo sapiens, UniProt P00533, DEL746-750), sequence (P00533 with tags, fused parts or gaps DEL746-750 limits assumed): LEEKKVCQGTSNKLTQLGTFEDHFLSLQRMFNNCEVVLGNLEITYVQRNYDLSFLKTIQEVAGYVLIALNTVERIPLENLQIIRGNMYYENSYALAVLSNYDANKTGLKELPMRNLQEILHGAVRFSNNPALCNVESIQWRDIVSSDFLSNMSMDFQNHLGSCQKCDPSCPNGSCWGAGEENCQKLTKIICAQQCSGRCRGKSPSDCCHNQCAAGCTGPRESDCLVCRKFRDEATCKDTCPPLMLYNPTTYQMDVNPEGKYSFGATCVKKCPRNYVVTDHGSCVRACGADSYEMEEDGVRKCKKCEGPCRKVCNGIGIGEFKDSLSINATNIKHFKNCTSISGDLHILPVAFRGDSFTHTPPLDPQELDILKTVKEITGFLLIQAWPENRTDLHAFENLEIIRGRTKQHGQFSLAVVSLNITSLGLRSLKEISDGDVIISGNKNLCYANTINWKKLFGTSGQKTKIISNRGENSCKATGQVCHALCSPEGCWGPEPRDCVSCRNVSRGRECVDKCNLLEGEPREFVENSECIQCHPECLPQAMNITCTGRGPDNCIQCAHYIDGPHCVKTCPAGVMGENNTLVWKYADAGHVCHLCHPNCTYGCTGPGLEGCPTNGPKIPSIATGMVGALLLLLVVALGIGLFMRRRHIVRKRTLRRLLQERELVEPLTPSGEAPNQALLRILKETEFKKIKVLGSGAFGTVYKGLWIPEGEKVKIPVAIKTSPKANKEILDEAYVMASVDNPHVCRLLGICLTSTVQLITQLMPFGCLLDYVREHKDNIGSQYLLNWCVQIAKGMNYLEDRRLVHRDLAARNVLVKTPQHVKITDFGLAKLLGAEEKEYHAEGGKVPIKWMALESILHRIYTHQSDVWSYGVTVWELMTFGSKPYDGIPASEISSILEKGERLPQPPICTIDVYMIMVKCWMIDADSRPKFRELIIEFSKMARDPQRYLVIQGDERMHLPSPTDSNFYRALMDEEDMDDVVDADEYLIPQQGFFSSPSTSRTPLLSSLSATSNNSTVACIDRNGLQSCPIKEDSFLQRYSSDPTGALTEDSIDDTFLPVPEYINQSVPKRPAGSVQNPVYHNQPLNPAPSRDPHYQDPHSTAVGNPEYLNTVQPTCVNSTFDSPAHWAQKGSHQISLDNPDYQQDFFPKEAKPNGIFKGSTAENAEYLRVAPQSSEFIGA
broad panel of kinases (Homo sapiens, UniProt P53350), sequence (P53350 2-603 limits assumed): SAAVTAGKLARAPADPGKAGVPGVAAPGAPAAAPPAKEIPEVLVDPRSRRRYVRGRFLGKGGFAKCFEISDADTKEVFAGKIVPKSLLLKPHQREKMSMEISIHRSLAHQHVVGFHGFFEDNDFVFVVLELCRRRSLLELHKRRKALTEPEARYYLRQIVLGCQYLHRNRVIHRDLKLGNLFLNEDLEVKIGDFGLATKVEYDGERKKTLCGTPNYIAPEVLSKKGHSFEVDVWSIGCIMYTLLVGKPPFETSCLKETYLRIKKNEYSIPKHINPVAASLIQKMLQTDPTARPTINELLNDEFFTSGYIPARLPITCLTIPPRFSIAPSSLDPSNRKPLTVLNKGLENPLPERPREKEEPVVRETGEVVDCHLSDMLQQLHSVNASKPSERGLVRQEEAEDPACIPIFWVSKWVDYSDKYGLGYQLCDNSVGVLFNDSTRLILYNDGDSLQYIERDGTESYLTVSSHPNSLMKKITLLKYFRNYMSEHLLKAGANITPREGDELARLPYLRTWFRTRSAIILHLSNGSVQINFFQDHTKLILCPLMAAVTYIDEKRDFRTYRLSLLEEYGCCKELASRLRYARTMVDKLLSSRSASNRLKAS
broad panel of kinases (Homo sapiens, UniProt Q13523), sequence (Q13523 2-1007 limits assumed): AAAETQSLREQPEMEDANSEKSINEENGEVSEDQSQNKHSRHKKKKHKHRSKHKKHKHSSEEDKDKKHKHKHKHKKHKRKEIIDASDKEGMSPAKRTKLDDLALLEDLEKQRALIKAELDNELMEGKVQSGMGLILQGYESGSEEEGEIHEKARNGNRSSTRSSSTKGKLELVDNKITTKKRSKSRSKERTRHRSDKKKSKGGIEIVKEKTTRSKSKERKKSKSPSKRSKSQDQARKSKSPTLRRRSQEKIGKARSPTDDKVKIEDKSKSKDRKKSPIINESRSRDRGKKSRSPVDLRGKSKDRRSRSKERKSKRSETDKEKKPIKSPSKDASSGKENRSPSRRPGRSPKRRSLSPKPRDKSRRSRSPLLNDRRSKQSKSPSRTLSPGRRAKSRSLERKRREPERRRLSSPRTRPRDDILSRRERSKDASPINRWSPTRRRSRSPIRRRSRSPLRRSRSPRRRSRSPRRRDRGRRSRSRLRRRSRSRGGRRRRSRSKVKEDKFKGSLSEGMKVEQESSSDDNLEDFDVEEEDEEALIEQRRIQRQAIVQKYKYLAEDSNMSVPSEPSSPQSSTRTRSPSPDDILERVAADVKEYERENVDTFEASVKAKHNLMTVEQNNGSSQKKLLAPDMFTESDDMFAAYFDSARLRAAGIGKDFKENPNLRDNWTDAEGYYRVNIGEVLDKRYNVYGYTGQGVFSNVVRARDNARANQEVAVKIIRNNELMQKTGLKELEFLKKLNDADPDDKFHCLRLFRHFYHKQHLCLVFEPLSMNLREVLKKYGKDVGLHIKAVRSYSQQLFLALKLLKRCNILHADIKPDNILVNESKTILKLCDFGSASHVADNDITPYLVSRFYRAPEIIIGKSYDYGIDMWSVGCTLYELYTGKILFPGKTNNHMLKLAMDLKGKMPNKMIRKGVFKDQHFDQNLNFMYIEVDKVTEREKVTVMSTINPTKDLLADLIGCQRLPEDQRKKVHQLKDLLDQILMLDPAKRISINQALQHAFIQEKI
broad panel of kinases (Homo sapiens, UniProt P00533), sequence (P00533 25-1210 limits assumed): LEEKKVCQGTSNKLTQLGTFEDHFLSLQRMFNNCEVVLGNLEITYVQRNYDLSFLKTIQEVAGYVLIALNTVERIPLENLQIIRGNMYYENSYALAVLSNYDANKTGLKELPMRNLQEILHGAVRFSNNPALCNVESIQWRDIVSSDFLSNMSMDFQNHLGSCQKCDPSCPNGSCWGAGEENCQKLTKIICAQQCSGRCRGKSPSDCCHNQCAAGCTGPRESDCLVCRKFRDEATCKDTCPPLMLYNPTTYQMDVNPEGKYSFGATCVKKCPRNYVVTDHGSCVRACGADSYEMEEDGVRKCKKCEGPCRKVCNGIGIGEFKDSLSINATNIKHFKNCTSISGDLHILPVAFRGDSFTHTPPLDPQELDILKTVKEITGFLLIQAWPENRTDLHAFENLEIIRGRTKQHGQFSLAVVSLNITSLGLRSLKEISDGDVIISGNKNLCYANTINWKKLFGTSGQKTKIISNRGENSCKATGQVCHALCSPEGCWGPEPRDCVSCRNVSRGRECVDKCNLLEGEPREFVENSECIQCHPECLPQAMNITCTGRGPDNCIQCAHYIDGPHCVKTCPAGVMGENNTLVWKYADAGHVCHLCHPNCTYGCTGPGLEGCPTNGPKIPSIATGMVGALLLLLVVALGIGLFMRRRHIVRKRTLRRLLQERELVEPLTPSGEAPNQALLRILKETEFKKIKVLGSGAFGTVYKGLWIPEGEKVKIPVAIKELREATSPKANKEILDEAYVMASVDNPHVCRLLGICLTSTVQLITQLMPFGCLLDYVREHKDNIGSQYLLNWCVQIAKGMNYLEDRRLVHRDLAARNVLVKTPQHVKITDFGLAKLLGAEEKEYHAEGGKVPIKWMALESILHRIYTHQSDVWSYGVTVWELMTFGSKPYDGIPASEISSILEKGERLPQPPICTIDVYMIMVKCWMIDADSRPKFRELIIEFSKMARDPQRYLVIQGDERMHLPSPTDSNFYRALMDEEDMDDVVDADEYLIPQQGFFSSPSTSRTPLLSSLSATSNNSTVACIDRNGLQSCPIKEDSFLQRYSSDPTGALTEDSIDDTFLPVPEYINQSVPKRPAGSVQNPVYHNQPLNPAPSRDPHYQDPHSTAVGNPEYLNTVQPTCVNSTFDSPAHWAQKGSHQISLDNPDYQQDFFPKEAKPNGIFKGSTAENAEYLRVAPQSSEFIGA

Row | SMILES | percent of control binding remaining (lower = stronger binding) [1] [%] | percent of control binding remaining (lower = stronger binding) [2] [%] | percent of control binding remaining (lower = stronger binding) [3] [%] | percent of control binding remaining (lower = stronger binding) [4] [%] | percent of control binding remaining (lower = stronger binding) [5] [%] | percent of control binding remaining (lower = stronger binding) [6] [%] | percent of control binding remaining (lower = stronger binding) ([7]; RSK4(Kin.Dom.1-N-terminal)) [%] | percent of control binding remaining (lower = stronger binding) ([7]; RSK4(Kin.Dom.2-C-terminal)) [%] | percent of control binding remaining (lower = stronger binding) [8] [%] | percent of control binding remaining (lower = stronger binding) [9] [%] | percent of control binding remaining (lower = stronger binding) [10] [%] | percent of control binding remaining (lower = stronger binding) [11] [%] | percent of control binding remaining (lower = stronger binding) [12] [%] | percent of control binding remaining (lower = stronger binding) [13] [%] | percent of control binding remaining (lower = stronger binding) [14] [%] | percent of control binding remaining (lower = stronger binding) [15] [%] | percent of control binding remaining (lower = stronger binding) [16] [%] | percent of control binding remaining (lower = stronger binding) [17] [%] | percent of control binding remaining (lower = stronger binding) [18] [%] | percent of control binding remaining (lower = stronger binding) [19] [%] | also measured
1 | C=CC(=O)N1CC[C@H](Nc2nc(CN3CCOCC3)cc(Nc3ncc(C(=O)Nc4c(C)cccc4C)s3)n2)C1 [Example I-2] | 52 | 98 | 100 | 51 | 92 | 92 | 100 | 100 | 100 | 100 | 83 | 5.6 | 73 | 79 | 100 | 3.7 | 85 | 100 | 100 | 100 | percent of control binding remaining (lower = stronger binding) [20]: 95%; percent of control binding remaining (lower = stronger binding) [21]: 100%; percent of control binding remaining (lower = stronger binding) [22]: 97%; percent of control binding remaining (lower = stronger binding) [23]: 94%; percent of control binding remaining (lower = stronger binding) [24]: 0.1%; percent of control binding remaining (lower = stronger binding) ([25]; ABL1(F317L)-nonphosphorylated): 0%; percent of control binding remaining (lower = stronger binding) ([25]; ABL1(F317L)-phosphorylated): 0.5%; percent of control binding remaining (lower = stronger binding) [26]: 100%; percent of control binding remaining (lower = stronger binding) [27]: 90%; percent of control binding remaining (lower = stronger binding) [28]: 95%; percent of control binding remaining (lower = stronger binding) [29]: 86%; percent of control binding remaining (lower = stronger binding) [30]: 92%; percent of control binding remaining (lower = stronger binding) [31]: 100%; percent of control binding remaining (lower = stronger binding) [32]: 84%; % change compared to control [33]: 100%; percent of control binding remaining (lower = stronger binding) [34]: 79%; percent of control binding remaining (lower = stronger binding) [35]: 100%; percent of control binding remaining (lower = stronger binding) [36]: 96%; percent of control binding remaining (lower = stronger binding) [37]: 92%
2 | C=CC(=O)N1CC[C@H](Nc2nccc(Nc3ncc(C(=O)Nc4c(C)cccc4C)s3)n2)C1 [Example I-3] | 25 | 100 | 83 | 66 | 83 | 71 | 100 | 97 | 100 | 100 | 49 | 2.6 | 100 | 86 | 96 | 2.9 | 93 | 100 | 97 | 95 | percent of control binding remaining (lower = stronger binding) [20]: 100%; percent of control binding remaining (lower = stronger binding) [21]: 97%; percent of control binding remaining (lower = stronger binding) [22]: 88%; percent of control binding remaining (lower = stronger binding) [23]: 81%; percent of control binding remaining (lower = stronger binding) [24]: 0%; % change compared to control ([25]; ABL1(F317L)-nonphosphorylated): 0.5%; % change compared to control ([25]; ABL1(F317L)-phosphorylated): 2%; percent of control binding remaining (lower = stronger binding) [26]: 81%; percent of control binding remaining (lower = stronger binding) [27]: 81%; percent of control binding remaining (lower = stronger binding) [28]: 100%; percent of control binding remaining (lower = stronger binding) [29]: 81%; percent of control binding remaining (lower = stronger binding) [30]: 100%; percent of control binding remaining (lower = stronger binding) [31]: 100%; percent of control binding remaining (lower = stronger binding) [32]: 100%; % change compared to control [33]: 95%; percent of control binding remaining (lower = stronger binding) [34]: 85%; percent of control binding remaining (lower = stronger binding) [35]: 97%; percent of control binding remaining (lower = stronger binding) [36]: 97%; percent of control binding remaining (lower = stronger binding) [37]: 78%
